# Assay results: patent publication US20100222390A1, “Methods and Compositions for the Intravenous Administration of Compounds Related to Proton Pump Inhibitors” (Alevium Pharmaceuticals, Inc., priority 2004, published 2010)
# Assay: Stability profile at 25° C. in buffered aqueous solutions
# Type: physicochemical
# Settings: for Degradation Rate Constant (k): 25° C.
# Source text: While not intending to be bound in any way by theory, the base-catalyzed degradation is unexpected because the commercial proton pump inhibitors are stabilized in aqueous solutions by adjusting the solution to high pH. […] This should allow bolus injection of the compounds disclosed herein as opposed to the slow infusion of the drug currently in practice because the present compositions will not have the irritation associated with the high pH traditionally used with proton pump inhibitors. This should also allow greater flexibility in co-administering these compounds with drugs which are unstable or otherwise incompatible with high pH.
smiles,measurement,setting,value
COc1ccc2c(c1)nc([S+]([O-])Cc1ncc(C)c(OC)c1C)n2S(=O)(=O)c1ccc(OCC(=O)O)cc1 (centres unmarked) [Compound 1],shelf-life,in a neutral solution,over forty hours
same,Degradation Rate Constant (k),"pH 1, 0.1 M HCl",0.194 h⁻¹
same,Degradation Rate Constant (k),"pH 3, Citric Acid (0.1 M)/Na2HPO4 (0.2 M)",0.009 h⁻¹
same,Degradation Rate Constant (k),"pH 5, Citric Acid (0.1 M)/Na2HPO4 (0.2 M)",0.008 h⁻¹
same,Degradation Rate Constant (k),"pH 7, sodium phosphate (0.1-0.2 M)",0.002 h⁻¹
same,Degradation Rate Constant (k),"pH 7.4, sodium phosphate (0.1-0.2 M)",0.002 h⁻¹
same,Degradation Rate Constant (k),"pH 9, sodium phosphate (0.1-0.2 M)",0.03 h⁻¹
same,Degradation Rate Constant (k),"pH 10, sodium phosphate (0.1-0.2 M)",0.298 h⁻¹
